# Laboratory results reported in patent US9724318B2, “Compositions for improving mental concentration” (priority 2001, dated 2017).
# Experiment: acute toxic test using a mouse, oral administration
# Type: in vivo
# Settings: oral administration at 5 g/kg
# Excerpt: The theanine used in the present invention has high safety. […] Also, especially L-theanine is known as a main component of umami (tastiness) of the green tea, and is also used as a food additive giving umami, without the limitation of its added amount under the regulation for food hygiene. Moreover, contrary to the conventional drugs, since there is no adverse action by theanine at all, the mind-concentration is safely and effectively achieved according to the composition of the present invention, whereby working efficiency, learning efficiency or the like, or sports performance can be improved.
smiles,measurement,value
"CCNC(=O)CC[C@H](N)C(=O)O [theanine, γ-glutamyl ethylamide]","abnormalities in the general states, weight and the like",no abnormalities
same,cases of death in acute toxic test,no cases of death
